≈ marks a conversion by molar mass, not a printed value.
What was measured:
Staphylococcus aureus = experiment: Antibacterial activity against Staphylococcus aureus ATCC 700787 after 17 hrs; format: functional; settings: ATCC 700787, 17 h
[1] = Cytotoxicity against human MIAPaCa2 cells assessed as after 48 hrs by MTT assay; format: functional, cell-based; settings: MIA PaCa-2, 48 h

| SMILES | MIC (Staphylococcus aureus) [µM] | IC50 [1] [µM] |
| --- | --- | --- |
| COC(=O)c1c(Sc2c(O)cc(OC)c(C(=O)c3c(O)cc(C)cc3O)c2C(=O)OC)c(O)cc(OC)c1C(=O)c1c(O)cc(C)cc1O | 4.1 (≈ 2.85 µg/mL) | 50.8 |
| COC(=O)c1c(Sc2c(O)cc3oc4cc(C)cc(O)c4c(=O)c3c2C(=O)OC)c(O)cc(OC)c1C(=O)c1c(O)cc(C)cc1O | 4.9 (≈ 3.25 µg/mL) | 30.3 |
| COC(=O)c1c(Sc2c(O)cc3oc4cc(C)cc(O)c4c(=O)c3c2C(=O)OC)c(O)cc2oc3cc(C)cc(O)c3c(=O)c12 | 3.2 (≈ 2.02 µg/mL) | 29.3 |
| O=C(N[C@H](CO)[C@H](O)c1ccc([N+](=O)[O-])cc1)C(Cl)Cl [CHLORAMPHENICOL] | 5 (≈ 1.62 µg/mL) |  |

— ChEMBL document CHEMBL3352203, “Bioactive sulfur-containing sulochrin dimers and other metabolites from an Alternaria sp. isolate from a Hawaiian soil sample” (J Nat Prod, 2014)
